Results on one molecule are retold here after patent US20040142944A1, “Compositions for nasal application” (priority 2001, published 2004).

The structures appear in SMILES notation. Entries after “also recorded” stand apart in the source; their conditions may differ.

This series can be described thus: nasal administration of cGMP PDE inhibitors with added local anaesthetic. In kind it is in vivo.

Take `OCc1ccccc1` [benzyl alcohol]: the “local irritation of the nasal mucosa” value is listed as “led to local irritation of the nasal mucosa”. Further, the “ability to reduce or prevent the disadvantages occurring on nasal administration of cGMP PDE inhibitors (unpleasant nasal condition, eye-watering, increased nasal airway resistance, nasal blockage)” value (added to cGMP PDE inhibitor) is on record as “unable to reduce or prevent the disadvantages; also recorded: unsuitable for overcoming the disadvantages”.
